Experimental findings from the Kinase Knowledgebase extract (Sharma et al. 2016) are described below.

As usually defined, the pIC50 is −log10 of the IC50, conventionally taken in molar units.

pIC50: −log10 of the molar value.

The target of this assay is PIK3CB;PIK3CG;PIK3CD;PIK3CA (human) (UniProt P48736). Kind of assay: Inhibition of PIK3CA/PIK3CB/PIK3CD/PIK3CG Kinase Activity.
`COc1ccc(CCS(C)(=O)=O)c(Nc2nc3ccccc3nc2NS(C)(=O)=O)c1` gave a pIC50 of 6.70.

Compound `COc1ccc(CC2CCN(C)CC2)c(Nc2nc3ccccc3nc2NS(=O)(=O)c2cccnc2)c1` showed a pIC50 of 7.35. In the case of `COc1ccc(CCCO)c(Nc2nc3ccccc3nc2NS(=O)(=O)CCCS(C)(=O)=O)c1` it was 6.92; in that of `COc1ccc(CC2CCS(=O)(=O)CC2)c(Nc2nc3ccccc3nc2NS(=O)(=O)c2cn(C)cn2)c1`, 7.52. With `COc1ccc(CC2CCN(C(=O)CN(C)C)CC2)c(Nc2nc3ccccc3nc2NS(=O)(=O)c2cn(C)cn2)c1`, the negative logarithm of the IC50 (pIC50) is 7.00. This pIC50 lies 0.52 log units lower than the previous one.

`COc1ccc(CC2CCS(=O)(=O)CC2)c(Nc2nc3ccccc3nc2NS(=O)(=O)c2ccc(CN(C)C)cc2)c1` gave a pIC50 of 8.00. Then `COc1ccc(C(CO)CO)c(Nc2nc3ccccc3nc2NS(=O)(=O)c2cn(C)cn2)c1`, with 6.26; and `COc1ccc(CCO)c(Nc2nc3ccccc3nc2NS(=O)(=O)c2ccc(OCCO)cc2)c1`, with 7.47. Then `COc1ccc(CN2CCN(C)CC2)c(Nc2nc3ccccc3nc2NS(=O)(=O)c2cccnc2)c1`, with 7.31; and `COc1ccc(CCO)c(Nc2nc3ccccc3nc2NS(=O)(=O)c2cccnc2)c1`, with 7.40; and `COC(=O)c1ccc(OC)cc1Nc1nc2ccccc2nc1NS(=O)(=O)c1cccnc1`, with 7.06. Then `CCCCO.COCCc1ccc(OC)cc1Nc1nc2ccccc2nc1NS(=O)(=O)c1cn(C)cn1`, with 7.08. The compound `COc1ccc(CCCO)c(Nc2nc3ccccc3nc2NS(=O)(=O)C2CCS(=O)(=O)C2)c1` (stereo unspecified) had a pIC50 of 6.89.

For the compound `COc1ccc(CC2CCCCC2)c(Nc2nc3ccccc3nc2NS(=O)(=O)c2cn(C)cn2)c1`, the pIC50 is 6.35. This pIC50 lies 0.54 log units lower than the previous one. `COc1ccc(CCS(C)(=O)=O)c(Nc2nc3ccccc3nc2NS(=O)(=O)C(C)C)c1` had a pIC50 of 6.80. In the case of `COc1ccc(CCO)c(Nc2nc3ccccc3nc2NS(=O)(=O)C2CCS(=O)(=O)C2)c1` (stereo unspecified) it was 7.07; in that of `COc1ccc(CCO)c(Nc2nc3ccccc3nc2NS(=O)(=O)c2ccc(C(=O)N(C)C)cc2)c1`, 6.60.

In the case of `COc1ccc(CCCO)c(Nc2nc3ccccc3nc2NS(=O)(=O)c2ccc(NC(=O)CN(C)C)cc2)c1`, the pIC50 is 7.49.

For `COc1ccc(CCO)c(Nc2nc3ccccc3nc2NS(=O)(=O)c2c(C)noc2C)c1`, the pIC50 is 6.54. This pIC50 lies 0.95 log units lower than the previous one. In the case of `COc1ccc(CCCO)c(Nc2nc3ccccc3nc2NS(=O)(=O)C2CCNCC2)c1` it was 7.59; in that of `COc1ccc(S(=O)(=O)NCCO)c(Nc2nc3ccccc3nc2NS(=O)(=O)CCCS(C)(=O)=O)c1`, 6.52; in that of `COC(=O)c1ccc(OC)cc1Nc1nc2ccccc2nc1NS(=O)(=O)c1cn(C)cn1`, 7.68. Then `COc1ccc(CCCO)c(Nc2nc3ccccc3nc2NS(=O)(=O)C(C)C)c1`, with 7.14; and `COc1ccc(CCO)c(Nc2nc3ccccc3nc2NS(=O)(=O)CCCSC)c1`, with 7.12. Then `CCCS(=O)(=O)Nc1nc2ccccc2nc1Nc1cc(OC)ccc1CCO`, with 7.36. `COc1ccc(CC2CC(C)(C)N(C)C(C)(C)C2)c(Nc2nc3ccccc3nc2NS(=O)(=O)c2cn(C)cn2)c1` showed a negative-log IC50 (pIC50) of 6.38. Then `COc1ccc(CCO)c(Nc2nc3ccccc3nc2NS(=O)(=O)c2ccc(NC(=O)CO)cc2)c1`, with 7.19. In the case of `COc1ccc(CC2CCOCC2)c(Nc2nc3ccccc3nc2NS(=O)(=O)c2ccc(F)cc2)c1` it was 6.82; in that of `COc1ccc(CC2CCN(C(C)=O)CC2)c(Nc2nc3ccccc3nc2NS(=O)(=O)c2cn(C)cn2)c1`, 7.05; in that of `COc1cc(Nc2nc3ccccc3nc2NS(=O)(=O)c2cn(C)cn2)cc(C(=O)NCCO)c1`, 7.00. Then `COc1cc(CN2CCN(C)CC2)cc(Nc2nc3ccccc3nc2NS(=O)(=O)c2cccnc2)c1`, with 6.01; and `COCCNC(=O)c1cc(Nc2nc3ccccc3nc2NS(=O)(=O)c2cn(C)cn2)cc(OC)c1`, with 6.40.

The compound `COc1ccc(CCCO)c(Nc2nc3ccccc3nc2NS(=O)(=O)c2cccc(NC(=O)CO)c2)c1` gave a pIC50 of 7.92.

For `COc1ccc(CCS(C)(=O)=O)c(Nc2nc3ccccc3nc2NS(=O)(=O)CCCS(C)(=O)=O)c1`, the negative-log IC50 (pIC50) is 6.46. Consider `COc1ccc(CCO)c(Nc2nc3ccccc3nc2NS(=O)(=O)c2ccc(C)[n+]([O-])c2)c1`, for which the pIC50 was 6.97. In the case of `COc1ccc(CCCO)c(Nc2nc3ccccc3nc2NS(=O)(=O)c2cccc(NC(=O)CN(C)C)c2)c1` it was 7.52. In the case of `COc1ccc(CC2CCN(S(C)(=O)=O)CC2)c(Nc2nc3ccccc3nc2NS(=O)(=O)c2cn(C)cn2)c1` it was 6.80; in that of `COc1ccc(CC2CCOCC2)c(Nc2nc3ccccc3nc2NS(=O)(=O)c2cccnc2)c1`, 7.57. For `COc1ccc(CCO)c(Nc2nc3ccccc3nc2NS(=O)(=O)c2ccc(NC(=O)CN(C)C)cc2)c1`, the pIC50 is 7.57.

The compound `COCCc1ccc(OC)cc1Nc1nc2ccccc2nc1NS(=O)(=O)C1CCN(C(C)=O)CC1` showed a negative logarithm of the IC50 (pIC50) of 6.52. In the case of `CCCS(=O)(=O)Nc1nc2ccccc2nc1Nc1cc(OC)ccc1CCS(C)(=O)=O` it was 7.06; in that of `COc1ccc(CCO)c(Nc2nc3ccccc3nc2NS(=O)(=O)c2ccc(C#N)cc2)c1`, 7.66; in that of `COc1ccc(CC2CCCC2)c(Nc2nc3ccccc3nc2NS(=O)(=O)c2cn(C)cn2)c1`, 6.74.

Compound `COc1ccc(CC2CCC(O)CC2)c(Nc2nc3ccccc3nc2NS(=O)(=O)c2cccnc2)c1` (stereo unspecified) had a negative logarithm of the IC50 (pIC50) of 7.70. This pIC50 lies 0.96 log units higher than the previous one. In the case of `COc1ccc(CCCN(C)C)c(Nc2nc3ccccc3nc2NS(=O)(=O)c2cn(C)cn2)c1` it was 7.96; in that of `COc1ccc(CCCO)c(Nc2nc3ccccc3nc2NS(=O)(=O)c2cn(C)c(CS(C)(=O)=O)n2)c1`, 7.06; in that of `COCCc1ccc(OC)cc1Nc1nc2ccccc2nc1NS(=O)(=O)C1CCNCC1`, 7.01. On to `COc1cc(Nc2nc3ccccc3nc2NS(C)(=O)=O)cc(C(=O)N2CCOCC2)c1`, for which the negative logarithm of the IC50 (pIC50) is 5.25. Compound `COc1ccc(CC2CCCCC2)c(Nc2nc3ccccc3nc2NS(=O)(=O)c2cccnc2)c1` gave a pIC50 of 6.31. In the case of `COc1ccc(CCS(C)(=O)=O)c(Nc2nc3ccccc3nc2NS(=O)(=O)c2c(C)noc2C)c1` it was 6.72; in that of `COc1ccc(CCO)c(Nc2nc3ccccc3nc2NS(=O)(=O)c2ccc(F)cc2)c1`, 7.64. Then `COc1cc(Nc2nc3ccccc3nc2NS(=O)(=O)c2cccnc2)cc(C(=O)N2CCN(C)CC2)c1`, with 5.48.

In turn, `COc1ccc(CCO)c(Nc2nc3ccccc3nc2NS(C)(=O)=O)c1` showed a pIC50 of 7.02.

With `COc1ccc(CC2CCN(C(C)=O)CC2)c(Nc2nc3ccccc3nc2NS(=O)(=O)c2cccnc2)c1`, the pIC50 is 7.29. In the case of `COc1ccc(CCO)c(Nc2nc3ccccc3nc2NS(=O)(=O)c2cn(C)cn2)c1` it was 7.32; in that of `COc1ccc(CCCS(C)(=O)=O)c(Nc2nc3ccccc3nc2NS(=O)(=O)c2cn(C)cn2)c1`, 7.30; in that of `COc1ccc(CCCO)c(Nc2nc3ccccc3nc2NS(=O)(=O)c2cn(C)c(CN(C)C)n2)c1`, 7.55. With `COc1ccc(CCO)c(Nc2nc3ccccc3nc2NS(=O)(=O)c2ccc(CN3CCC(F)CC3)cc2)c1`, the pIC50 is 7.37.

`COc1ccc(CCS(C)(=O)=O)c(Nc2nc3ccccc3nc2NS(=O)(=O)c2ccccc2)c1` showed a negative logarithm of the IC50 (pIC50) of 7.38. In the case of `COc1ccc(CCCO)c(Nc2nc3ccccc3nc2NS(=O)(=O)c2cccc(NC(=O)COCc3ccccc3)c2)c1` it was 6.32. Then `COc1ccc(CCCO)c(Nc2nc3ccccc3nc2NS(C)(=O)=O)c1`, with 7.19; and `COc1ccc(CC2CCCCC2)c(Nc2nc3ccccc3nc2NS(=O)(=O)c2ccc(CN(C)C)cc2)c1`, with 6.12; and `COCCc1ccc(OC)cc1Nc1nc2ccccc2nc1NS(=O)(=O)c1cn(C)c(CS(C)(=O)=O)n1`, with 6.70. In the case of `COc1ccc(CCOC(=O)[C@@H](N)C(C)C)c(Nc2nc3ccccc3nc2NS(=O)(=O)c2cn(C)cn2)c1` it was 7.00; in that of `COc1ccc(CC(O)CO)c(Nc2nc3ccccc3nc2NS(=O)(=O)c2cn(C)cn2)c1` (stereo unspecified), 6.92. In turn, `COc1ccc(CCCO)c(Nc2nc3ccccc3nc2NS(=O)(=O)C2CCN(C(=O)OCc3ccccc3)CC2)c1` had a negative-log IC50 (pIC50) of 6.14. Then `COc1ccc(CCO)c(Nc2nc3ccccc3nc2NS(=O)(=O)c2ccc(CN(C)C)cc2)c1`, with 7.59.

As for `CCS(=O)(=O)Nc1nc2ccccc2nc1Nc1cc(OC)ccc1CCS(C)(=O)=O`, the negative-log IC50 (pIC50) is 7.06. In the case of `COc1ccc(CCS(C)(=O)=O)c(Nc2nc3ccccc3nc2NS(=O)(=O)c2cn(C)c(CN(C)C)n2)c1` it was 7.06; in that of `COc1ccc(CC2C[C@H]3CC[C@@H](C2)N3C)c(Nc2nc3ccccc3nc2NS(=O)(=O)c2cn(C)cn2)c1` (stereo partly specified), 6.96. In the case of `COc1ccc(CN2CCN(C)CC2)c(Nc2nc3ccccc3nc2NS(=O)(=O)c2ccc(F)cc2)c1` it was 6.96. In the case of `COc1ccc(CC2CCN(C)CC2)c(Nc2nc3ccccc3nc2NS(C)(=O)=O)c1`, the pIC50 is 6.96.

In the case of `COC(=O)CCc1ccc(S(=O)(=O)Nc2nc3ccccc3nc2Nc2cc(OC)ccc2CCO)cc1`, the pIC50 is 7.15. Consider `COc1ccc(CC2CCOCC2)c(Nc2nc3ccccc3nc2NS(C)(=O)=O)c1`, for which the negative logarithm of the IC50 (pIC50) is 6.89. `COc1ccc(CCO)c(Nc2nc3ccccc3nc2NS(=O)(=O)CCCS(C)(=O)=O)c1` gave a negative logarithm of the IC50 (pIC50) of 6.92. This pIC50 and that of the compound before are within 0.2 log units of each other. In the case of `CCCS(=O)(=O)Nc1nc2ccccc2nc1Nc1cc(OC)ccc1CCCO` it was 7.31; in that of `COc1ccc(CCS(C)(=O)=O)c(Nc2nc3ccccc3nc2NS(=O)(=O)CCCSC)c1`, 6.85; in that of `COc1ccc(CCO)c(Nc2nc3ccccc3nc2NS(=O)(=O)c2ccc(CCCO)cc2)c1`, 7.44. In the case of `COc1cc(Nc2nc3ccccc3nc2NS(=O)(=O)c2cn(C)cn2)cc(C(=O)N(C)C)c1` it was 6.12. Then `COc1ccc(CC2CCOCC2)c(Nc2nc3ccccc3nc2NS(=O)(=O)c2ccc(CN(C)C)cc2)c1`, with 7.52; and `COc1ccc(CC2CCOCC2)c(Nc2nc3ccccc3nc2NS(=O)(=O)c2cn(C)cn2)c1`, with 7.31.
